Test results as given in patent publication US9963451B2, “Fused ring pyrimidine compound and pest control agent containing the same” (Mitsui Chemicals Agro, Inc., priority 2013, dated 2018).
Counter-ions that a name gives are not always drawn. Like-named read-outs stand apart in the source and are kept apart here.

How the values were obtained:
Format in all cases: in vivo
[1] = tested on: Callosobruchus chinensis; assay: Test Example 5: insecticidal test against Callosobruchus chinensis (petri dish dry film); details: 24 h, read-out: insect death ratio
Procedure: Insecticidal Test Against Callosobruchus chinensis
1 ml of acetone solution in which a test compound had been diluted at a predetermined concentration was added dropwise to a petri dish having a diameter of 9 cm, and air dried, and then ten adults of Callosobruchus chinensis were released and the petri dish was covered. They were left to stand in an incubator at 25° C., and the numbers of living insects and dead insects were examined after 1 day. There was no series.

[2] = tested on: Chilo suppressalis; assay: Test Example 10: insecticidal test against Chilo suppressalis (rice stem dip, single and combined chemicals); details: after 6 days
Procedure: Insecticidal Test Against Chilo suppressalis
A stem part was cut from a rice plant (breed: Koshihikari) cultivated in water and it was immersed in a chemical solution which has been diluted to have a pre-determined concentration. After air drying, it was put into a 9 cm polyethylene cup having a water-wetted filter paper laid on the bottom thereof, and 3-stage larvae of Chilo suppressalis were released and covered. They were left to stand in an incubator at 25° C., and the numbers of living insects and dead insects were examined after 6 days. There were two series, i.e., 5 insects per group. Meanwhile, in Table 30, when combination of two types of test chemicals are used (i.e., A and B), the combination of the two types was described as A+B, and in the concentration column (ppm), it was described as concentration of A+concentration of B.

[3] = tested on: Pyricularia oryzae; assay: whole plant or invertebrate
[4] = tested on: Laodelphax striatellus; assay: whole plant or invertebrate; details: for pest or weed control at 1 ppm / pest or weed control at 3 ppm: Laodelphax striatellus, in Oryza sativa, 144 h, read-out: Insect death ratio (%)
Procedure: Insecticidal Test Against Laodelphax striatellus
A chemical solution diluted to have a pre-determined concentration was sprayed to young rice plant (breed: Koshihikari) followed by air drying. Then, it was added to a glass test tube (diameter of 3 cm and height of 10 cm) added with water together with ten 3-stage larvae of Laodelphax striatellus. The tube was then covered. The number of living insects was determined after 6 days and the dead insect ratio was calculated. There were two series, i.e., 10 insects per group. Meanwhile, in Table 29, when combination of two types of test chemicals are used (i.e., A and B), the combination of the two types was described as A+B, and in the concentration column (ppm), it was described as concentration of A+concentration of B.

[5] = tested on: Plutella xylostella; assay: Test Example 4: insecticidal test against Plutella xylostella (cabbage leaf dip); details: foliar, 144 h, read-out: insect death ratio
Procedure: Insecticidal Test Against Plutella xylostella
A piece of a cabbage leaf was immersed for 30 seconds in a chemical solution in which the test compound had been added at a predetermined concentration, and air dried, and then put into a 7 cm polyethylene cup having a filter paper laid on the bottom thereof, and five 3-stage larvae of Plutella xylostella were released. They were left to stand in an incubator at 25° C., and the numbers of living insects and dead insects were examined after 6 days. There was no series.

[6] = Pyricularia oryzae, 168 h, read-out: Rice blast control value
[7] = Chilo suppressalis, 144 h, read-out: Insect death ratio (%)
[8] = Chilo suppressalis, 144 h, 1 ppm, read-out: Insect death ratio (%)
[9] = concentration of 1000 ppm, cabbage leaf dip, 3-stage larvae, 25° C., after 6 days

## Cc1cc(=O)n2nc(S(C)(=O)=O)nc2n1Cc1ccc(Cl)nc1 [compound 10, 4-((6-chloropyridin-3-yl)methyl)-5-methyl-2-(methylsulfonyl)-[1,2,4]triazolo[1,5-a]pyrimidin-7(4H)-one]
[1]
  pest or weed control at 1000 ppm: ≥ 70%

## spinosad
[2]; 1 ppm
  Insect death ratio (%): 70%

## Cc1cc(=O)n2nc(C(F)(F)F)cc2n1Cc1cnc(Cl)cc1Cl [compound 248]
[1]
  pest or weed control at 1000 ppm: ≥ 70%

## C[C@@H](NC(=O)C(C#N)C(C)(C)C)c1ccc(Cl)cc1Cl (stereo partly drawn) [Diclocymet, diclocymet]
[3]; [6]
  pest or weed control at 1.5 ppm: 95%

## CN(C)C(CSC(N)=O)CSC(N)=O [Cartap, Cartap hydrochloride]
[2]; Chilo suppressalis, 144 h, 300 ppm, read-out: Insect death ratio (%)
  pest or weed control at 300 ppm: 90%

## Cc1cc(=O)n2nc(S(=O)(=O)CC(F)(F)F)nc2n1Cc1ccc(Cl)nc1 [compound 190]
[1]
  pest or weed control at 1000 ppm: ≥ 70%

## CC(C)N1C(=O)N(c2ccccc2)CS/C1=N\C(C)(C)C [Buprofezin, buprofezin]
[4]; after 6 days
  pest or weed control at 1 ppm: 70%

## CC(=O)Oc1c(C)c(C)nc2c(F)cc(C(C)(C)C)cc12 [Tebufloquin, tebufloquin]
[3]; 100 ppm, spots counted 7 days later
  Rice blast control value: 98

## CSc1cc2n(Cc3ccc(Cl)nc3)c(C)c(F)c(=O)n2n1 [compound 237]
[5]
  pest or weed control at 1000 ppm: ≥ 70%

## CCOc1ccc(C(C)(C)COCc2cccc(Oc3ccccc3)c2)cc1 [Ethofenprox, ethofenprox]
[4]; 30 ppm, after 6 days
  Insect death ratio (%): 40%
[2]; 100 ppm
  Insect death ratio (%): 100%

## CCSc1cc2n(Cc3cnc(Cl)c(F)c3)c(C)cc(=O)n2n1 [compound 252]
[1]
  pest or weed control at 1000 ppm: ≥ 70%

## CN(C(=O)c1ccc(F)cc1)c1cccc(C(=O)Nc2c(I)cc(C(F)(C(F)(F)F)C(F)(F)F)cc2C(F)(F)F)c1F [DD-2]
[2]; [7]
  pest or weed control at 0.1 ppm: 100%

## N#Cc1ccccc1NC(=O)c1snc(Cl)c1Cl [Isotianil, isotianil]
[3]; 1 ppm, spots counted 7 days later
  Rice blast control value: 97

## CSc1nc2n(Cc3ccc(Cl)nc3)c(C)c/c(=N\O)n2n1 [compound 121, 4-((6-chloropyridin-3-yl)methyl)-5-methyl-2-(methylthio)-[1,2,4]triazolo[1,5-a]pyrimidin-7(4H)-oneoxime]
[1]
  pest or weed control at 1000 ppm: ≥ 70%

## CCc1c(C)n(Cc2ccc(Cl)nc2)c2nc(SC)nn2c1=O [compound 25]
[5]
  pest or weed control at 1000 ppm: ≥ 70%

## CN(C(=O)c1ccccc1)c1cccc(C(=O)Nc2c(Br)cc(C(F)(C(F)(F)F)C(F)(F)F)cc2C(F)(F)F)c1F [DD-1]
[2]; [7]
  pest or weed control at 0.1 ppm: 90%

## Cc1cc(=O)n2nc([S+]([O-])CC(F)(F)F)nc2n1Cc1ccc(Cl)nc1 (stereo not drawn) [compound 189]
[5]
  pest or weed control at 1000 ppm: ≥ 70%

## CC[S+]([O-])c1cc2n(Cc3ccc(Cl)nc3)c(C)cc(=O)n2n1 (stereo not drawn) [compound 244]
[1]
  pest or weed control at 1000 ppm: ≥ 70%

## Cc1cc(C(F)(C(F)(F)F)C(F)(F)F)ccc1NC(=O)c1cccc(I)c1C(=O)NC(C)(C)CS(C)(=O)=O [Flubendiamide, flubendiamide]
[2]; [8]
  pest or weed control at 1 ppm: 80%

## spinetoram
[2]; 1 ppm
  Insect death ratio (%): 100%

## Cc1cccc2sc3nncn3c12 [Tricyclazole, tricyclazole]
[3]; [6]
  pest or weed control at 2 ppm: 98%
  pest or weed control at 200 ppm: 97%

## Cc1cc(=O)n2nc(SCCC(F)(F)F)nc2n1Cc1ccc(Cl)nc1 [compound 22]
[5]
  pest or weed control at 1000 ppm: ≥ 70%

## Cc1cc(=O)n2nc(SCCCC(F)(F)F)nc2n1Cc1ccc(Cl)nc1 [compound 23]
[5]
  pest or weed control at 1000 ppm: ≥ 70%

## N#Cc1nn(-c2c(Cl)cc(C(F)(F)F)cc2Cl)c(N)c1[S+]([O-])C(F)(F)F (stereo not drawn) [Fipronil, fipronil]
[4]; after 6 days
  pest or weed control at 1 ppm: 70%

## CNC(=O)c1cc(Cl)cc(C)c1NC(=O)c1cc(Br)nn1-c1ncccc1Cl [Chlorantraniliprole, chlorantraniliprole]
[2]; [8]
  pest or weed control at 1 ppm: 80%

## CC[S+]([O-])c1c(C#N)nn(-c2c(Cl)cc(C(F)(F)F)cc2Cl)c1N (stereo not drawn) [Ethiprole, ethiprole]
[4]; 3 ppm, after 6 days
  pest or weed control at 3 ppm: 20%

## CSc1nc2n(Cc3ccc(Cl)nc3)c(C)cc(=S)n2n1 [compound 24, 4-((6-chloropyridin-3-yl)methyl)-5-methyl-2-(methylthio)-[1,2,4]triazolo[1,5-a]pyrimidin-7(4H)-thione]
[5]
  pest or weed control at 1000 ppm: ≥ 70%

## CCSc1nc2n(Cc3ccc(Cl)nc3)c(C)cc(=O)n2n1 [compound 29]
[5]
  pest or weed control at 1000 ppm: ≥ 70%

## Cc1cc(=O)n2nc(S(C)(=O)=NC#N)nc2n1Cc1ccc(Cl)nc1 (stereo not drawn) [compound 76]
[1]
  pest or weed control at 1000 ppm: ≥ 70%

## CSc1nc2n(Cc3cnc(Cl)c(F)c3)c(C)cc(=O)n2n1 [compound 306]
[1]
  pest or weed control at 1000 ppm: ≥ 70%

## CC(C)OC(=O)C(C(=O)OC(C)C)=C1SCCS1 [Isoprothiolane, isoprothiolane]
[3]; [6]
  pest or weed control at 6 ppm: 97%

## Cc1cc(=O)n2nc(SCc3cccc(C(F)(F)F)c3)nc2n1Cc1ccc(Cl)nc1 [compound 16]
[5]; [9]
  pest or weed control at 1000 ppm: ≥ 70%

## CC1(C)N=C(c2cnc3ccccc3c2)c2cccc(F)c2C1(C)C [EE-2]
[3]; [6]
  pest or weed control at 50 ppm: 95%

## CC1(C)N=C(c2cnc3ccccc3c2)c2cccc(F)c2C1(F)F [EE-3]
[3]; [6]
  pest or weed control at 50 ppm: 97%

## CNC(=O)c1cc(C#N)cc(C)c1NC(=O)c1cc(Br)nn1-c1ncccc1Cl [Cyantraniliprole, cyantraniliprole]
[2]; [8]
  pest or weed control at 1 ppm: 80%

## COc1nc2n(Cc3ccc(Cl)nc3)c(C)cc(=O)n2n1 [compound 45, 4-((6-chloropyridin-3-yl)methyl)-2-methoxy-5-methyl-[1,2,4]triazolo[1,5-a]pyrimidin-7(4H)-one]
[1]
  pest or weed control at 1000 ppm: ≥ 70%

## CSc1cc2n(Cc3cnc(Cl)nc3)c(C)cc(=O)n2n1 [compound 299]
[1]
  pest or weed control at 1000 ppm: ≥ 70%

## O=C(Nc1c(I)cc(C(F)(C(F)(F)F)C(F)(F)F)cc1C(F)(F)F)c1cccc(NC(=O)c2cccnc2Cl)c1 [DD-3]
[2]; [7]
  pest or weed control at 0.1 ppm: 100%

## Cc1cc(=O)n2nc(C(F)F)cc2n1Cc1ccc(Cl)nc1 [compound 241]
[5]
  pest or weed control at 1000 ppm: ≥ 70%

## Cc1cc(=O)n2nc(C(F)(F)F)cc2n1Cc1cnc(Cl)c(F)c1 [compound 253]
[1]
  pest or weed control at 1000 ppm: ≥ 70%

## COP(=O)(NC(C)=O)SC (stereo not drawn) [Acephate, acephate]
[4]
  pest or weed control at 3 ppm: 20%

## Cc1cc(=O)n2nc(OC(C)c3ccc(C(F)(F)F)cc3)nc2n1Cc1ccc(Cl)nc1 (stereo not drawn) [compound 106]
[5]; [9]
  pest or weed control at 1000 ppm: ≥ 70%

## Cc1cc(=O)n2nc(-c3ccccc3F)nc2n1Cc1ccc(Cl)nc1 [compound 28]
[5]
  pest or weed control at 1000 ppm: ≥ 70%

## Cc1ccc(C(=O)NC[C@@H](NC(=O)OCC(F)(F)F)C(C)C)cc1 [Tolprocarb, tolprocarb]
[3]; in vivo
  Rice blast control value: 97

## CSc1cc2n(Cc3cnc(Cl)c(F)c3)c(C)cc(=O)n2n1 [compound 307]
[1]
  pest or weed control at 1000 ppm: ≥ 70%

## Cc1cc(=O)n2nc(OCC(F)(F)F)nc2n1Cc1ccc(Cl)nc1 [compound 46]
[1]
  pest or weed control at 1000 ppm: ≥ 70%

## Cc1cc(O)no1 [Hydroxyisoxazole, hydroxyisoxazole]
[4]; 600 ppm, after 6 days
  Insect death ratio (%): 0%

## CSc1cc2n(Cc3ccc(Cl)nc3)c(C)c(C)c(=O)n2n1 [compound 236]
[5]
  pest or weed control at 1000 ppm: ≥ 70%

## Cc1cc(=O)n2nc(C(C)(F)F)nc2n1Cc1ccc(Cl)nc1 [compound 59]
[1]
  pest or weed control at 1000 ppm: ≥ 70%

## CNC(=O)/C(=N/OC)c1ccccc1CO/N=C(C)/C(=N/OC)C(/C)=N/OC [Orysastrobin, orysastrobin]
[3]; 3.5 ppm, spots counted 7 days later
  Rice blast control value: 95

## Cc1cc(=O)n2nc(-n3cccn3)nc2n1Cc1ccc(Cl)nc1 [compound 80]
[1]
  pest or weed control at 1000 ppm: ≥ 70%

## CC1(C)N=C(c2cnc3ccccc3c2)c2ccccc2C1(F)F [EE-1]
[3]; [6]
  pest or weed control at 50 ppm: 97%

## CCSc1cc2n(Cc3ccc(Cl)nc3)c(C)cc(=O)n2n1 [compound 243]
[5]
  pest or weed control at 1000 ppm: ≥ 70%

## Cc1cc(=O)n2nc([S+](C)[O-])nc2n1Cc1ccc(Cl)nc1 (stereo not drawn) [compound 26]
[1]
  pest or weed control at 1000 ppm: ≥ 70%

## C=CCOC1=NS(=O)(=O)c2ccccc21 [Probenazole, probenazole]
[3]; [6]
  pest or weed control at 12 ppm: 96%
